Experimental data: patent US10730875B2, “Substituted imidazo[1,2-A]pyridin-2-ylamine compounds, and pharmaceutical compositions and methods of use thereof” (JN Therapeutics, priority 2015, dated 2020)

Tests used:
[1] = biological target: human Janus kinase 2 (JAK2), recombinant catalytic domain (Homo sapiens (Human), UniProt O60674); assay: LanthaScreen TR-FRET enzymatic assay, JAK2; assay type: biochemical
In short: (§1)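 Insect-cell-expressed catalytic domains (JAK1 aa 866-1154, 440 ng/mL; JAK2 aa 808-1132, 11 ng/mL; JAK3 aa 781-1124, 400 ng/mL; TYK2 aa 833-1187, 200 ng/mL) preincubated 15 min with compound, then reacted 1 h at room temperature with 100 nM GFP-STAT1 and 1 mM ATP. pTyr701 detected by TR-FRET (terbium antibody); IC50 from 10-dose sigmoid fits.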

[2] = biological target: human tyrosine kinase 2 (TYK2), recombinant catalytic domain (Homo sapiens (Human), UniProt P29597); assay: LanthaScreen TR-FRET enzymatic assay, TYK2; assay type: biochemical; conditions: TR-FRET, 1 mM ATP, GFP-STAT1 substrate; read-out: Inhibitory Activity IC50 TYK2
Chain of human tyrosine kinase 2 (TYK2), recombinant catalytic domain (Homo sapiens (Human), UniProt P29597) (P29597 833-1187): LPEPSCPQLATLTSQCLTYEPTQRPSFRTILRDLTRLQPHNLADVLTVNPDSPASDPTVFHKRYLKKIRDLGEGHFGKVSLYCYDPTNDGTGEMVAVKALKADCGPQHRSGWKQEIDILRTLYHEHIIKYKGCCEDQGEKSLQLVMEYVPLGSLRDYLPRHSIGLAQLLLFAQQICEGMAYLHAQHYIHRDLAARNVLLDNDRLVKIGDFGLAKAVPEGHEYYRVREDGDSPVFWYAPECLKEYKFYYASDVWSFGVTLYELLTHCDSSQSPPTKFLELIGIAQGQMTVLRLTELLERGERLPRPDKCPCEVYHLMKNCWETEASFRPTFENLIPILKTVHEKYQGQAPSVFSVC
In short: as §1

[3] = system: human tyrosine kinase 2 (TYK2), recombinant catalytic domain; assay: LanthaScreen TR-FRET enzymatic assay, TYK2; assay type: biochemical; conditions: ratio of IC50 against TYK2 over IC50 against JAK1
In short: as §1

[4] = Pharmacokinetics in Sprague-Dawley rats (HPLC-MS/MS of plasma); assay type: in vivo; conditions: rat
Experimental: The PK parameters of compound 14 were determined in Sprague-Dawley rats (Hubei Provincial Laboratory Animal Research Center) after a single oral (p.o) and intravenous (i.v.) administration using HPLC-MS/MS (Shimadzu LC-20ACXR HPLC coupled with AB Sciex API 4500 Qtrap).
A sensitive and specific HPLC-MS/MS method was developed for the determination of the compound in rat plasma. Multiple reaction monitoring (MRM) mode was used for the quantification of the compound by monitoring the ion transitions at m/z from 443.1 to 375.1. Compound 2 was used as an internal standard and monitored by the ion transition at m/z from 427.1 to 357.1. Calibration curves were constructed in the range of 1.00-1000 ng/mL in rat plasma extract by a 1/×2 weighted quadratic regression. The regression coefficients obtained were greater than 0.99 and back calculated values comprised in the range of ±15% from their nominal concentration.
For the intravenous administration, the compound was dissolved in 25% PEG200 in saline and intravenously administrated at a single dose of 1.00 mg/kg. For the oral administration, the compound was suspended in 0.5% sodium carboxymethylcellulose (CMC-Na) solution and intragastrically administrated at a single dose of 5.00 mg/kg. Approximately 0.200 mL of blood sample were collected from orbital venous plexus at 0 (predose), 0.25, 0.5, 1, 2, 4, 8, 12 and 24 hrs post dosing. All samples were placed into EDTA-K2-treated tubes and centrifuged at 3,500 rpm at 4° C. for 10 min to separate the plasma fractions. The plasma samples were stored at −20° C. prior to analysis. The plasma samples were analyzed with the HPLC-MS/MS method.

[5] = Sprague-Dawley, plasma, IV, single dose 1.00 mg/kg
[6] = Sprague-Dawley, plasma, PO, single dose 5.00 mg/kg

Chain of human Janus kinase 2 (JAK2), recombinant catalytic domain (O60674 808-1132): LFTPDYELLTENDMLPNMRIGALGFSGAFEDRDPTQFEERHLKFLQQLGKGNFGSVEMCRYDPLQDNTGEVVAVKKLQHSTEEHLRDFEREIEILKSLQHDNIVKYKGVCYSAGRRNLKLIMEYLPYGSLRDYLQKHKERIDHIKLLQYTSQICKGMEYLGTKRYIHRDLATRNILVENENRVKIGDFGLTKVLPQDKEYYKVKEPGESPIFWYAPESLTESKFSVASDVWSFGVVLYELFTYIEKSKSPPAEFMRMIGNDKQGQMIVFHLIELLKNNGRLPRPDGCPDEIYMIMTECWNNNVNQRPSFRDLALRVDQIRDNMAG

- IC50 ([1]; TR-FRET, 1 mM ATP, GFP-STAT1 substrate, read-out: Inhibitory Activity IC50 JAK2): 1 to 5 µM
- IC50 [2]: 1 to 5 µM
- F ([4]; PO, single dose 5.00 mg/kg): 46.7 ± 7.3%
- AUC(0-t) [4, 5]: 677 ± 122 ng·h/mL
- MRT [4, 5]: 1.4 ± 0.2 h
- clearance [4, 5]: 24.8 mL/min/kg
- half-life [4, 5]: 1.4 ± 0.3 h
- Vd ([4]; Sprague-Dawley, plasma, IV, single dose 1.00 mg/kg, read-out: Vz): 2.98 ± 0.912 L/kg
- AUC(0-t) [4, 6]: 1590 ± 253 ng·h/mL
- Cmax [4, 6]: 571 ± 190 ng/mL
- MRT [4, 6]: 2.3 ± 0.4 h
- Tmax [4, 6]: 0.63 ± 0.25 h
- half-life [4, 6]: 1.9 ± 0.3 h
SMILES: O=C(Nc1cn2c(-c3ccc(CN4CCS(=O)(=O)CC4)cc3F)cccc2n1)C1CC1 [Compound 14]
- Selectivity JAK2/JAK1 ([1]; ratio of IC50 against JAK2 over IC50 against JAK1): A′ (A′ represents a ratio of greater than 8)
- Selectivity TYK2/JAK1 [3]: A′ (A′ represents a ratio of greater than 8)
